{
  "source": "paper PMC8421406",
  "about": "“C9orf72-derived arginine-rich poly-dipeptides impede phase modifiers” (Nature Communications, 2021)",
  "key": {"[1]": {"tested_on": "GFP:FUS-LC:NLS / mCh:FUS-LC hydrogel", "assay": "Hydrogel binding assay, GFP:FUS-LC:NLS on mCh:FUS-LC hydrogel", "format": "biochemical", "conditions": "Kapβ2 0.1-1.0 µM; PR20 with 1.0 µM Kapβ2", "description": "The experiment was independently repeated three times with similar results. Here, 10 μm scale bars are shown in the image. e Graphical description of hydrogel binding assay. Hydrogels of mCh:LC-domain accumulate GFP:LC-domain as it co-polymerizes. f Hydrogel binding assay for FUS-LC in the absence and presence of Kapβ2. mCh:FUS-LC (lower images) were incubated with 1.0 µM of GFP (left panel) or 1.0 µM of GFP:FUS-LC:NLS (right panel) in the presence of different concentrations of Kapβ2 (left to right: 0.1, 0.3, and 1.0 µM). g Quantitative analysis of Fig. 1f. Relative intensity of GFP signals is shown as the mean of three independent experiments ± SD, analyzed by one-way ANOVA followed by Dunnett’s multiple comparison test (**P < 0.01, ***P < 0.001). h Hydrogel binding assay for FUS-LC in the absence and presence of Kapβ2 and/or PR20. Hydrogel droplets of mCh:FUS-LC (lower images) were incubated with 1.0 µM of GFP (left panel) or GFP:FUS-LC:NLS (right panel). GFP:FUS-LC:NLS containing Kapβ2 (1.0 µM) was challenged for homotypic polymer extension in the absence or presence of different concentration of PR20. i Quantitative analysis of Fig. 1h. Relative intensity of GFP signals is shown as the mean of three independent experiments ± SD, analyzed by one-way ANOVA followed by Dunnett’s multiple comparison test (**P < 0.01). Source data are provided as a Source Data file. […]"}, "[2]": {"tested_on": "MBP:FUS (full-length FUS droplets) / Kapβ2", "assay": "Turbidity assay of FUS droplet formation (OD 395 nm)", "format": "biochemical", "conditions": "equimolar poly-dipeptide and Kapβ2 (8 μM)"}, "[3]": {"tested_on": "Kapβ2 / MBP:FUS-NLS complex", "assay": "Competitive pull-down: release of MBP:FUS-NLS from GST:Kapβ2", "format": "binding", "conditions": "MBP:FUS-NLS (501–526) : GST:Kapβ2 1:1, PR20:HA competitor; repeated twice", "text": "Unbound proteins were washed three times with the buffer."}, "[4]": {"tested_on": "FUS droplets (MBP:FUS/MBP:FUS:EGFP) / Kapβ2", "assay": "Fluorescence microscopy of FUS droplets", "format": "biochemical", "conditions": "16 μM Kapβ2, 16 μM Kapβ2–M9M complex, 50 μM PR20, repeated three times"}},
  "note": "Where no end group is shown, it is not given here. HA = HA epitope tag",
  "data": [
    {"substance": "PR20: twenty repeats of proline:arginine with an HA epitope tag at the C terminus, synthesized by SCRUM, Inc. (PRPRPRPRPRPRPRPRPRPRPRPRPRPRPRPRPRPRPRPR-{HA})", "values": [
      {"measurement": "Effect on hydrogel binding of GFP:FUS-LC:NLS", "setting": "[1]", "value": "inhibited the ability of Kapβ2 from blocking the hydrogel binding of GFP:FUS-LC:NLS"},
      {"measurement": "Inhibition of the ability of Kapβ2 to melt FUS droplets (turbidity)", "setting": "[2]", "value": "inhibited the ability of Kapβ2"},
      {"measurement": "Release of MBP:FUS-NLS from Kapβ2", "setting": "[3]", "value": "release of MBP:FUS-NLS from Kapβ2"},
      {"measurement": "Effect on FUS droplets (microscopy)", "setting": "[4]", "value": "not melted in the presence of PR20"}
    ]}
  ]
}
